14 compounds from patent US12630521B2, “Arylamides and methods of use thereof” (Genzyme Corporation, priority 2019, dated 2026) can be followed below.

The target of assay [1] is T1, CFTR (ΔF508 homozygous CF-HBE cells) (Homo sapiens, UniProt P13569, DEL508-508).
T1 construct: Primary human bronchial epithelial cells from a ΔF508 homozygous CF donor; host or cells: primary CF-HBE cells (ΔF508/ΔF508 donor)
In words: TECC24 AUC fold over DMSO @10 uM: CFTR-mediated transepithelial chloride transport in primary CF-HBE cells. Format: cell-based. To be noted: 10 μM test agent, 48 hours, forskolin-stimulated IEQ AUC divided by vehicle AUC. The procedure: Example 37: TECC24 AUC Fold Over DMSO @10 uM
The effects of a test agent on CFTR-mediated transepithelial chloride transport was measured using TECC24 recording analysis. Test agents were solubilized in DMSO. Solubilized test agents were mixed with incubation medium containing DMEM/F12, Ultroser G (2%; Crescent Chemical, catalog #67042), Hyclone Fetal Clone 11(2%; GE Healthcare, catalog #SH30066.02), bovine brain extract (0.25%; Lonza, catalog #CC-4098), insulin (2.5 μg/mL), IL-13 (10 ng/mL), hydrocortisone (20 nM), transferrin (2.5 μg/mL), triiodothyronine (500 nM), ethanolamine (250 nM), epinephrine (1.5 μM), phosphoethanolamine (250 nM), and retinoic acid (10 nM). Primary human bronchial epithelial cells from a ΔF508 homozygous CF donor (CF-HBE cells; from University of North Carolina Cystic Fibrosis Tissue Procurement Center), grown on Transwell HTS 24-well cell culture inserts (Costar, catalog #3378), were exposed to test agents or controls dissolved in incubation medium. The CF-HBE cells were cultured at 36.5° C. for 48 hours before TECC24 recordings were performed in the presence or absence of test agent, a positive control or vehicle (DMSO).
Following incubation, the transwell cell culture inserts containing the test agent or control-treated CF-HBE cells were loaded onto a TECC24 apparatus (TECC v7 or MTECC v2; EP Design) to record the transepithelial voltage (VT) and resistance (TEER) using 4 AgCl electrodes per well configured in current-clamp mode. The apical and basolateral bath solutions both contained (in mM) 140 NaCl, 5 KCl, 2 CaCl2, 1 MgCl2, 10 Hepes, and 10 glucose (adjusted to pH 7.4 with NaOH). To inhibit basal Na+ absorption, the ENaC inhibitor benzamil (10 μM) was added to the bath. Then, the adenylate cyclase activator, forskolin (10 μM), was added to the bath to activate CFTR. The forskolin-stimulated Cl— transport was halted by addition of CFTR inhibitor-172 (20 μM) to the bath at the end of the experiment to confirm specificity. VT and TEER recordings were digitally acquired at routine intervals using TECC or MTECC software (EP Design). VT and TEER were transformed into equivalent transepithelial Cl-current (IEQ), and the Area Under the Curve (AUC) of the IEQ time course between forskolin and CFTR inhibitor-172 addition is generated using Excel (Microsoft). Efficacy is expressed as the ratio of the test agent AUC divided by vehicle AUC. EC50s based on AUC are generated using the non-linear regression log(agonist) vs. response function in Prism software (GraphPad) with Hill Slope fixed=1.
If a test agent increased the AUC of the forskolin-stimulated IEQ relative to vehicle in CF-HBE cells, and this increase was inhibited by CFTR inhibitor-172, then the test agent was considered a CFTR corrector.

Assay [2] deals with T2, human Cystic Fibrosis Transmembrane Conductance Regulator (CFTR) harboring the ΔF508 mutation (Homo sapiens, UniProt P13569, DEL508-508).
T2 construct: expressed in transfected cells; host or cells: H441 carcinoma cell line (G418 selection)
The experiment in a line: H441 cell Emax and EC50: HRP-tagged ΔF508-CFTR cell-surface luminescence assay. Format: cell-based. To be noted: H441 cells expressing HRP-tagged ΔF508-CFTR, 27° C. for two nights; for EC50: 15-point dose-response; for Emax: NCI-H441, % of maximum VX809 signal. The source says: Example 36: H441 Cell Emax and EC50
Two cell lines were used, the H441 carcinoma line and the CFHBE41o− (41o−) human bronchial epithelial line. Both cell lines expressed human Cystic Fibrosis Transmembrane Conductance Regulator (CFTR) harboring the ΔF508 mutation and with an in-frame fusion in CFTR extracellular loop 4 of Horse Radish Peroxidase (HRP) under control of the CMV promoter. In the presence of the HRP tag, ΔF508-CFTR transported to the cell surface was detectable upon addition of an HRP substrate (Luminata Forte). Both cell types were cultivated at 37° C. with CO2.
For both cell types, the medium was changed every other day unless the culture was at low % confluence. Cells were used for the assays at ˜75% confluence.
DMSO/Compound Dilutions Plate for 15-Point Dose-Response Testing
To a polypropylene (PP) 384-well plate, 15 μls DMSO was added to all wells in columns 1-22 and 24 (low Control). 15 μls of 260 μM VX809 (Lumacaftor), Selleckchem S1565, was added to column 23 wells (high Control). 15 μls of 10 mM test compound or VX809 (control) were added to wells of row A. Serial dilutions of Row A compound were performed 2×15 μls in rows A through 0 (15-point).
A PP, 384-well plate containing the appropriate cell culture medium was prepared for each assay plate with 100 μls per well. For the doxycycline-induced 41o− cells, doxycycline for both the assay plate and the medium dilution plate was added at 0.0005 mg/ml to the medium.
Both cell lines were plated for the assay at 30 μls per 384-well at 3.4×10^e5 cells per ml (˜10K cells/well). H441 cells were plated on opaque, white, Corning plate 3704. 41o− cells were plated on collagen-coated opaque, white, Corning plate 356665. For 41o− cells, doxycycline was added to the medium.
Compound Addition/Assay Incubation
Using FX (Beckman) protocol, 10 μls diluted compound or medium was added per well to the Assay Plate as: 2 μls DMSO Dilution plate well is diluted in 100 μls of the Medium Dilution Plate well, mixed, and 10 μls is transferred to the Assay Plate.
The final assay dilution series is 24.5, 12.3, 6.1, 3.1, 1.5, 0.8, 0.4, 0.2, 0.1, 0.05, 0.02, 0.01, 0.006, 0.003, 0.001 and 0 μM. The 41o− assay plates were incubated at 37° C. w/CO2, the H441 assay plates were incubated at 27° C. w/CO2, each overnight for two nights.
Assay Result Determination
After being brought to room temperature, the assay plate liquid was removed. 30 uls of Luminata Forte (Millipore ELLUF0100) was added per well and incubated at room temperature for 10 min. The plates were then read on a Topcount, protocol LumiMatti (CPS, luminescence). The data was analyzed for % of maximum, maximum VX809 signal, and EC50 using Pearl and SPEED tools.

T1 sequence (P13569 with tags, fused parts or gaps DEL508-508): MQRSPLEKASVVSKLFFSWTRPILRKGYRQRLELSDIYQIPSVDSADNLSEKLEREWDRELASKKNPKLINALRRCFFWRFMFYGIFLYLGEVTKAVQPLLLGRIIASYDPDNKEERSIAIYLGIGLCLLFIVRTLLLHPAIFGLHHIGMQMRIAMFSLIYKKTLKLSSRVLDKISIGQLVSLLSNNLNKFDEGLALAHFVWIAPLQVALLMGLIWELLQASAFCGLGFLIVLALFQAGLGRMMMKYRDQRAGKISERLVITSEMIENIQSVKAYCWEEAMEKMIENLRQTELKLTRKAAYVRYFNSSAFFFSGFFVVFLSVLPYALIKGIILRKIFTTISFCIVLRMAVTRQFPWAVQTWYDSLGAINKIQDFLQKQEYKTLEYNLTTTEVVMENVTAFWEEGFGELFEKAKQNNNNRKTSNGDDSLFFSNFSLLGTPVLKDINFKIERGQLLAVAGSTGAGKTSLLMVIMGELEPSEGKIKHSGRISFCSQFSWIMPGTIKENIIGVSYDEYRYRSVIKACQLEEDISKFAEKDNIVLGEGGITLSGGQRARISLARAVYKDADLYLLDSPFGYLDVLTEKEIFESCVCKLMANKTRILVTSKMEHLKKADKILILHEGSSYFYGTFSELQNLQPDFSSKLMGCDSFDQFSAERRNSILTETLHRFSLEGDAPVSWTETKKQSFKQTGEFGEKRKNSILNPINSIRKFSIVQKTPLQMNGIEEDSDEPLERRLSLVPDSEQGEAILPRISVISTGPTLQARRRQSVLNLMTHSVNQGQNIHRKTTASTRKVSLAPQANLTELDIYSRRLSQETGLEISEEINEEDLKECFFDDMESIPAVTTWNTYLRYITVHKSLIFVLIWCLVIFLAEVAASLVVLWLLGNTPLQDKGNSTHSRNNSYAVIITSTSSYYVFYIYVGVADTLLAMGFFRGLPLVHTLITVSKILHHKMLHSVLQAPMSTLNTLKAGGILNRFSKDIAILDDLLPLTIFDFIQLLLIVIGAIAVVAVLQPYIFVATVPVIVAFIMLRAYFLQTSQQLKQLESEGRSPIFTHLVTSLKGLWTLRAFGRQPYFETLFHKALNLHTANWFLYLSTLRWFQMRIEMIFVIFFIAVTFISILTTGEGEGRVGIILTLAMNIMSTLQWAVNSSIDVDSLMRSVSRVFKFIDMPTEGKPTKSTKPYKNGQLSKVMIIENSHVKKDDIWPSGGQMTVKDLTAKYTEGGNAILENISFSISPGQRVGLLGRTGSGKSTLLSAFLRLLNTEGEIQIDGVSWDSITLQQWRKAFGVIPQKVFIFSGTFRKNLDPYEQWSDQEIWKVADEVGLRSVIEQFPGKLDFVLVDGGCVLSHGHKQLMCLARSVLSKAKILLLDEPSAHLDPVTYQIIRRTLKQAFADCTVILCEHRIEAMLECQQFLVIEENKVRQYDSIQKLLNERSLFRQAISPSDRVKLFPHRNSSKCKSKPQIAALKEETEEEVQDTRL
T2 sequence (P13569 with tags, fused parts or gaps DEL508-508): as above

Usually EC50 stands for the concentration needed to bring the measured effect to its halfway point. Broadly, the Emax is the greatest response seen or fitted, relative to the assay's reference. As to `CC(C)(c1ccccc1)C(NC(=O)c1ccc2sccc2c1OCC1CCC(F)(F)CC1)C(=O)O` (centres unmarked) [Compound 32-2, 2-(4-((4,4-difluorocyclohexyl)methoxy)-benzo[b]thiophene-5-carboxamido)-3-methyl-3-phenylbutanoic acid], the “TECC24 AUC fold over DMSO” value in assay [1] is listed as “C (“C” refers to AUC @10 μM < 4)”. In addition, in assay [2], the midpoint of the response, the EC50, lay at 3.2 µM and the Emax came out at 112%.
The corresponding values for `CC1(C(NC(=O)c2ccc3sccc3c2OCC2CCC(F)(F)CC2)C(=O)O)CCCCC1` (centres unmarked) [Compound 32-4, 2-(4-((4,4-difluorocyclohexyl)methoxy)-benzo[b]thiophene-5-carboxamido)-2-(1-methylcyclohexyl)acetic acid] are “C (“C” refers to AUC @10 μM < 4)”, 4.37 µM and 78.7%.
On the same counts, the results for `CC(C)(c1ccccc1)C(NC(=O)c1ccc2sccc2c1OCc1ccc(SC(F)(F)F)cc1)C(=O)O` (centres unmarked) [Compound 32-5, 3-methyl-3-phenyl-2-(4-((4-((trifluoromethyl)thio)benzyl)oxy)-benzo[b]thiophene-5-carboxamido)butanoic acid] are “C (“C” refers to AUC @10 μM < 4)”, 0.496 µM and 93.5%.
The corresponding values for `CC1(C(NC(=O)c2ccc3sccc3c2OCc2ccc(OC(F)(F)F)cc2)C(=O)O)CCCCC1` (centres unmarked) [Compound 32-6, 2-(1-methylcyclohexyl)-2-(4-((4-(trifluoromethoxy)benzyl)oxy)-benzo[b]thiophene-5-carboxamido)acetic acid] are “C (“C” refers to AUC @10 μM < 4)”, 3.3 µM and 142%.
Turning to `CC(C)(C)[C@H](NC(=O)c1ccc2sccc2c1OCC1CCC(F)(F)CC1)C(=O)O` [Compound 32-7, (2S)-2-(4-((4,4-difluorocyclohexyl)methoxy)-benzo[b]thiophene-5-carboxamido)-3,3-dimethylbutanoic acid], the “TECC24 AUC fold over DMSO” value in assay [1] is “C (“C” refers to AUC @10 μM < 4)”. In assay [2], the EC50 turned out to be 6.89 µM and the Emax amounted to 127%.
As to `CC(C)(C)[C@H](NC(=O)c1ccc2sccc2c1OCc1ccc(OC(F)F)cc1)C(=O)O` [Compound 32-8, (2S)-2-(4-((4-(difluoromethoxy)benzyl)oxy)-benzo[b]thiophene-5-carboxamido)-3,3-dimethylbutanoic acid], in assay [2], a half-maximal response (EC50) required 4.56 µM and the Emax was found to be 4.1%.
As for `CC(C)(C)[C@H](NC(=O)c1ccc2sccc2c1OCc1ccc(C(F)(F)F)cc1)C(=O)O` [Compound 32-9, (2S)-3,3-dimethyl-2-(4-((4-(trifluoromethyl)benzyl)oxy)-benzo[b]thiophene-5-carboxamido)butanoic acid], the “TECC24 AUC fold over DMSO” value in assay [1] was “C (“C” refers to AUC @10 μM < 4)”. Further, in assay [2], the EC50 worked out at 1.08 µM and the Emax came out at 193%.
On the same counts, the results for `CCC(C)(C)[C@H](NC(=O)c1ccc2sccc2c1OCC1CCC(F)(F)CC1)C(=O)O` [Compound 32-10, (2S)-2-(4-((4,4-difluorocyclohexyl)methoxy)-benzo[b]thiophene-5-carboxamido)-3,3-dimethylpentanoic acid] are “C (“C” refers to AUC @10 μM < 4)”, 7.31 µM and 85.3%.
Take `CC(C)(C)[C@H](NC(=O)c1ccc2sc(C(F)F)nc2c1OCc1ccc(C(F)(F)F)cc1)C(=O)O` [Compound 35-4, (2S)-2-[[2-(difluoromethyl)-4-[[4-(trifluoromethyl)phenyl]methoxy]-1,3-benzothiazole-5-carbonyl]amino]-3,3-dimethyl-butanoic acid]: the “TECC24 AUC fold over DMSO” value in assay [1] is “A (“A” refers to AUC @10 μM > 6)”.
Still for that read-out and setting: under `CC(C)(C)[C@H](NC(=O)c1ccc2sc(C3CC3)nc2c1OCc1ccc(C(F)(F)F)cc1)C(=O)O` [Compound 35-5, (2S)-2-[[2-cyclopropyl-4-[[4-(trifluoromethyl)phenyl]methoxy]-1,3-benzothiazole-5-carbonyl]amino]-3,3-dimethyl-butanoic acid] stands “A (“A” refers to AUC @10 μM > 6)”.
On the same count and under the same terms, under `CCC(C)(C)[C@H](NC(=O)c1ccc2sc(C3CC3)nc2c1OCc1ccc(C(F)(F)F)cc1)C(=O)O` [Compound 35-6, (2S)-2-[[2-cyclopropyl-4-[[4-(trifluoromethyl)phenyl]methoxy]-1,3-benzothiazole-5-carbonyl]amino]-3,3-dimethyl-pentanoic acid] stands “A (“A” refers to AUC @10 μM > 6)”; under `CC(C)(C)[C@H](NC(=O)c1ccc2sc(C3CCCC3)nc2c1OCc1ccc(C(F)(F)F)cc1)C(=O)O` [Compound 35-7, (2S)-2-[[2-cyclopentyl-4-[[4-(trifluoromethyl)phenyl]methoxy]-1,3-benzothiazole-5-carbonyl]amino]-3,3-dimethyl-butanoic acid], “A (“A” refers to AUC @10 μM > 6)”; under `CC(C)(C)[C@H](NC(=O)c1ccc2sc(C3(F)CC3)nc2c1OCc1ccc(C(F)(F)F)cc1)C(=O)O` [Compound 35-8, (2S)-2-[[2-(1-fluorocyclopropyl)-4-[[4-(trifluoromethyl)phenyl]methoxy]-1,3-benzothiazole-5-carbonyl]amino]-3,3-dimethyl-butanoic acid], “A (“A” refers to AUC @10 μM > 6)”.
Same read-out and setting: under `CC(C)(C)[C@H](NC(=O)c1ccc2sc(C3CCC3)nc2c1OCc1ccc(C(F)(F)F)cc1)C(=O)O` [Compound 35-9, (2S)-2-[[2-cyclobutyl-4-[[4-(trifluoromethyl)phenyl]methoxy]-1,3-benzothiazole-5-carbonyl]amino]-3,3-dimethyl-butanoic acid] stands “A (“A” refers to AUC @10 μM > 6)”.
